From ChEMBL document CHEMBL5725865, “Neprilysin inhibitors” (2018)

Assay: Enzyme NEP Inhibition Assay: The assays were performed in 384-well white opaque plates at 37° C. using the fluorogenic peptide substrates at a concentration of 10 μM in Assay Buffer (NEP: 50 mM HEPES, pH 7.5, 100 mM NaCl, 0.01% polyethylene glycol sorbitan monolaurate (Tween-20), 10 μM ZnSO4; ACE: 50 mM HEPES, pH 7.5, 100 mM NaCl, 0.01% Tween-20, 1 μM ZnSO4). The respective enzymes were used at …
Description: Enzyme NEP Inhibition Assay: The assays were performed in 384-well white opaque plates at 37° C. using the fluorogenic peptide substrates at a concentration of 10 μM in Assay Buffer (NEP: 50 mM HEPES, pH 7.5, 100 mM NaCl, 0.01% polyethylene glycol sorbitan monolaurate (Tween-20), 10 μM ZnSO4; ACE: 50 mM HEPES, pH 7.5, 100 mM NaCl, 0.01% Tween-20, 1 μM ZnSO4). […] Test compounds were added to the enzymes and incubated for 30 minute at 37° C. prior to initiating the reaction by the addition of substrate.

Q: With `O=C(O)C(=O)N[C@H](Cc1ccc(-c2ccccc2)cc1)CC(O)C(=O)O` (stereo partly specified) as the compound, how does the Ki read?
A: The Ki was “in the range around 35.5 nM”.
